Results on one compound are retold here after EP3929184A1, “((((3-HALOPHENYL)(PHENYL)METHYL)SULFINYL)METHYL)THIOPHENE COMPOUNDS AND DIASTEREOMERIC FORMS THEREOF FOR USE IN IMPROVING COGNITIVE FUNCTIONS” (Red Bull GmbH, priority 2020, dated 2021).

For one experiment, the system named is presynaptic cells. In words: Dopamine release from presynaptic cells. Conditions: different from compounds such as Amphetamines. It is filed as cell-based.
For a further experiment, the system named is young rats. Kind of experiment: Reversal of scopolamine effect in young rats. It is filed as in vivo.

The structures appear in SMILES notation.

As to `[O-][S+](Cc1cccs1)C(c1ccccc1)c1cccc(Br)c1` [2-2, 2-(((((R),(R)-3-bromophenyl)(phenyl)methyl)sulfinyl)methyl)thiophene], in the experiment on presynaptic cells, the “release of dopamin from presynaptic cells” value is “does not induce release”. In the experiment on young rats, the “effect of compounds such as scopolamine” value is reported as “reversed”.
